The source of these data is ChEMBL document CHEMBL4014323, “Hydroxy-Substituted Heteroarylpiperazines: Novel Scaffolds for β-Arrestin-Biased D2R Agonists” (J Med Chem, 2017).

Where only a bound is given, the exact number is not on record here.

Sequence of 5-hydroxytryptamine receptor 2A (P28223 whole entry): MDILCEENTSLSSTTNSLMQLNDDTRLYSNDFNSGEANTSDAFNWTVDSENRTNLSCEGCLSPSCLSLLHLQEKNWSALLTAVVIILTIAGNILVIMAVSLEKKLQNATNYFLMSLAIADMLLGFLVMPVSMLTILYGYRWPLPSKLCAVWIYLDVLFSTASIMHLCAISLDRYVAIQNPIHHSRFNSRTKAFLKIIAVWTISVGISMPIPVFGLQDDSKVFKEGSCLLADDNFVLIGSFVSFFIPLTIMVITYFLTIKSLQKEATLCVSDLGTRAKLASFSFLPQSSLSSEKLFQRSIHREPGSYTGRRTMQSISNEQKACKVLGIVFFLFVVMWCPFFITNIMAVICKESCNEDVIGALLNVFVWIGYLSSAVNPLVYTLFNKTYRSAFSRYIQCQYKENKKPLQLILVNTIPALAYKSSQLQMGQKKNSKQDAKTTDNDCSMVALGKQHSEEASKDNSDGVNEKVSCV
Sequence of D(1B) dopamine receptor (P21918 whole entry): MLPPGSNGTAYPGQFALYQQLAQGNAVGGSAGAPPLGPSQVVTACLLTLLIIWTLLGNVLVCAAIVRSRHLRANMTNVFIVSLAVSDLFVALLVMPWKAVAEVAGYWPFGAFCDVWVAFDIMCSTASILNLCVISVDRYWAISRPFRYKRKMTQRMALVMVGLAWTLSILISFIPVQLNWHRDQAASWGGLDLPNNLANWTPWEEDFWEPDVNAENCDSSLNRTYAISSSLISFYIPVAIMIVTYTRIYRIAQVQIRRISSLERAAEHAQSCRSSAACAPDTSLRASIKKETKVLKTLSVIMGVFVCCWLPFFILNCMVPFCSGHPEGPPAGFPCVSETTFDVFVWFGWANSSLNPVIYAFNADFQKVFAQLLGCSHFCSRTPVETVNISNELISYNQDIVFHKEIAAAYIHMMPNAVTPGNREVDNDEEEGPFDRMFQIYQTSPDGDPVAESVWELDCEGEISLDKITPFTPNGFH
T1 sequence (P14416 whole entry): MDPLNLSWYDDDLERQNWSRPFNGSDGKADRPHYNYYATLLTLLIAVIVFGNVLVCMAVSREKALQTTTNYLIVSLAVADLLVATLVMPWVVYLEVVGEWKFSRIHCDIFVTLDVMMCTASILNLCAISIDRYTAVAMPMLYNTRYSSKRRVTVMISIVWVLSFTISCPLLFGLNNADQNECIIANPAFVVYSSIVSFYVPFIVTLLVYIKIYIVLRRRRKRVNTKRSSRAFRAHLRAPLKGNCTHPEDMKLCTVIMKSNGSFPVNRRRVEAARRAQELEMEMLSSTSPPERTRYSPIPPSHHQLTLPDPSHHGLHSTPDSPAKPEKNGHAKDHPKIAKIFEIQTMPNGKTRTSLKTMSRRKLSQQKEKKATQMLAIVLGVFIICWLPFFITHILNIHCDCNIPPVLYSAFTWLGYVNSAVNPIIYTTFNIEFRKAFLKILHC
T4 sequence (Q12809 whole entry): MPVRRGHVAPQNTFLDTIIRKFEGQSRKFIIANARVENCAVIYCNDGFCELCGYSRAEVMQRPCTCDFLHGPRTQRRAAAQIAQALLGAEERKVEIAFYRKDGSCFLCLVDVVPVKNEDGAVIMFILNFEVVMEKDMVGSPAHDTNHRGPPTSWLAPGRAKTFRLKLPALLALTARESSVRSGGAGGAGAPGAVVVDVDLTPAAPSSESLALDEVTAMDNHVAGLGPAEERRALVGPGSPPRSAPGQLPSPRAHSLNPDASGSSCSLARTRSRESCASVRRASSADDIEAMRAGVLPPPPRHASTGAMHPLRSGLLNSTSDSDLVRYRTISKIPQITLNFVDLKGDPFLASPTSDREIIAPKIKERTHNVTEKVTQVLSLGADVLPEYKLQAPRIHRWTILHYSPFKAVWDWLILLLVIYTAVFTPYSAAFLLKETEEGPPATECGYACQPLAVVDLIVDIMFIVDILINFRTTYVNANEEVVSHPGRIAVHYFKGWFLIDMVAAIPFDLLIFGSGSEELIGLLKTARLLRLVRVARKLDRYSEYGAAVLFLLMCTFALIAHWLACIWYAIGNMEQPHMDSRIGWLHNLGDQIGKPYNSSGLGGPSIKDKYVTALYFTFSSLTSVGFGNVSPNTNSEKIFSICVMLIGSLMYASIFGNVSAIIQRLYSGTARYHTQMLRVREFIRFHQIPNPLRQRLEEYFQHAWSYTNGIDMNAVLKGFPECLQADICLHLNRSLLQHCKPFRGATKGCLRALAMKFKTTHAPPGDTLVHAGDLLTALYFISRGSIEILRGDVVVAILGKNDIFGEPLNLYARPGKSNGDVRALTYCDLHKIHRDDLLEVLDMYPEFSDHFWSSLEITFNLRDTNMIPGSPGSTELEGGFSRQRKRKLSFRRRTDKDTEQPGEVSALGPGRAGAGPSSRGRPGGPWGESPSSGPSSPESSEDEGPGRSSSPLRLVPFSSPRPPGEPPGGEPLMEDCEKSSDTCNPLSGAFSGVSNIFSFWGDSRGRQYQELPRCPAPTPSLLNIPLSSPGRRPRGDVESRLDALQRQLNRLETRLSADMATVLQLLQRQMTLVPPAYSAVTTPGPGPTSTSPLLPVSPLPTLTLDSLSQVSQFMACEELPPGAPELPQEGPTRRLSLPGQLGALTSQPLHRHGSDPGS

One series has as its target T1, D(2) dopamine receptor (Homo sapiens, UniProt P14416). In words: biochemical. In kind it is cell-based.
Details: not given; call rule not given here
The compound `CCCCn1cc(CCCOc2ccc(C(=O)NCCCCN3CCCN(c4ccc(O)c5[nH]c(=O)ccc45)CC3)cc2OC)nn1` returned a Ki of 200 nM.
Regarding `O=C1CCc2ccc(OCCCCN3CCN(c4ccc(O)c5ncccc45)CC3)cc2N1`, the inhibition constant (Ki) was found to be 3.4 nM.
Turning to `O=c1ccc2c(N3CCN(CCCCOc4ccn5nccc5c4)CC3)ccc(O)c2o1`, the Ki was determined as 40 nM.
Regarding `O=C1CCc2ccc(OCCCCN3CCCN(c4ccc(O)c5[nH]c(=O)ccc45)CC3)cc2N1`, the Ki came out at 1.6 nM. This Ki is about 25-fold lower than that of the compound before.

A further series deals with T1, D(2) dopamine receptor. In words: biochemical.
Details: not given
Type of series: cell-based. This is another data set of the same source.
`CCCCn1cc(CCCOc2ccc(C(=O)NCCCCN3CCCN(c4ccc(O)c5[nH]c(=O)ccc45)CC3)cc2OC)nn1` gave a Ki of 220 nM.
`O=C1CCc2ccc(OCCCCN3CCN(c4ccc(O)c5ncccc45)CC3)cc2N1` came in with a Ki of 1.5 nM.
As for `O=c1ccc2c(N3CCN(CCCCOc4ccn5nccc5c4)CC3)ccc(O)c2o1`, the Ki amounted to 19 nM. This Ki is about 13-fold higher than that of the compound before.
The same measure, in the same setting: the figure for `O=C1CCc2ccc(OCCCCN3CCCN(c4ccc(O)c5[nH]c(=O)ccc45)CC3)cc2N1` is 0.81 nM.

Another series addresses T2, D(4) dopamine receptor (Homo sapiens, UniProt P21917).
T2 sequence (P21917 whole entry): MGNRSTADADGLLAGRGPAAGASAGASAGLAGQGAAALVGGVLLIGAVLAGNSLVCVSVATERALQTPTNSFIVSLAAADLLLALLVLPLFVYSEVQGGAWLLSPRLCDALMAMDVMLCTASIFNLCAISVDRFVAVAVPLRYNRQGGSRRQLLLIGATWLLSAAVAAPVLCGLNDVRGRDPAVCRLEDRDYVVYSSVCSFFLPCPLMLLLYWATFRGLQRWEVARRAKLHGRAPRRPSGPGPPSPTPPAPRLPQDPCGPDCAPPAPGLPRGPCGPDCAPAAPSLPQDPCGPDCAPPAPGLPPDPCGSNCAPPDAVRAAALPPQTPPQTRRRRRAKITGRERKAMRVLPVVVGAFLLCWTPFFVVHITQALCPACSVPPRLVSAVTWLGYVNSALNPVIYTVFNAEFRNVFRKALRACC
In words: biochemical. Type of series: cell-based.
Details: not given
For the compound `CCCCn1cc(CCCOc2ccc(C(=O)NCCCCN3CCCN(c4ccc(O)c5[nH]c(=O)ccc45)CC3)cc2OC)nn1`, the affinity, expressed as Ki, was 2100 nM. This counts as single-digit micromolar.
On to `O=C1CCc2ccc(OCCCCN3CCN(c4ccc(O)c5ncccc45)CC3)cc2N1`, for which the affinity, expressed as Ki, was 94 nM. Compared with the last compound, the Ki is about 22-fold lower.
Same read-out and setting: the figure for `O=c1ccc2c(N3CCN(CCCCOc4ccn5nccc5c4)CC3)ccc(O)c2o1` is 270 nM; for `O=C1CCc2ccc(OCCCCN3CCCN(c4ccc(O)c5[nH]c(=O)ccc45)CC3)cc2N1` it is 75 nM.

Another series has as its target T1, D(2) dopamine receptor.
Assay: not given
Type of series: cell-based, HEK-293T.
Details: not given
`CCCCn1cc(CCCOc2ccc(C(=O)NCCCCN3CCCN(c4ccc(O)c5[nH]c(=O)ccc45)CC3)cc2OC)nn1`: a half-maximal response (EC50) required 1600 nM.
For `O=C1CCc2ccc(OCCCCN3CCCN(c4ccc(O)c5[nH]c(=O)ccc45)CC3)cc2N1`, the EC50 amounted to 190 nM.

The target of a further series is T1, D(2) dopamine receptor.
Assay: not given
In kind it is functional, cell-based, HEK-293T.
Details: not given
This is another data set of the same source.
Compound `O=C1CCc2ccc(OCCCCN3CCCN(c4ccc(O)c5[nH]c(=O)ccc45)CC3)cc2N1` came in with an EC50 of 67 nM.

Another series concerns the target T1, D(2) dopamine receptor.
Assay: not given
Type of series: cell-based, HEK-293T.
Details: not given
The source holds these as a separate data set.
Take `O=C1CCc2ccc(OCCCCN3CCCN(c4ccc(O)c5[nH]c(=O)ccc45)CC3)cc2N1`: the response was half-maximal at 200 nM (EC50).

System in a further series: not listed separately
Kind of series: Half life in Sprague-Dawley rat liver microsomes at 20 uM by HPLC analysis. In kind it is ADME, microsome.
Details: not given
`O=C1CCc2ccc(OCCCCN3CCCN(c4ccc(O)c5[nH]c(=O)ccc45)CC3)cc2N1`: the half-life at 20 µM was 2.17 h.

System in a further series: not listed separately
In words: Intrinsic clearance in Sprague-Dawley rat liver microsomes assessed per mg protein at 20 uM by HPLC analysis. In kind it is ADME, microsome. Conditions: read-out: CLH.
As to `O=C1CCc2ccc(OCCCCN3CCCN(c4ccc(O)c5[nH]c(=O)ccc45)CC3)cc2N1`, the microsomal CLint at 20 µM was 11 µL/min/mg.

System in another series: not listed separately
Kind of series: Binding affinity to microsomal protein in Sprague-Dawley rat liver microsomes after 60 mins in presence of NADPH by HPLC analysis. The note with it: read-out: PB (converted). Type of series: ADME.
In the case of `O=C1CCc2ccc(OCCCCN3CCCN(c4ccc(O)c5[nH]c(=O)ccc45)CC3)cc2N1`, the fraction unbound at 1 h is 0.73.

System in the next series: not listed separately
Kind of series: Binding affinity to microsomal protein in Sprague-Dawley rat liver microsomes after 60 mins in absence of NADPH by HPLC analysis. Type of series: ADME. The note with it: 1 h.
`O=C1CCc2ccc(OCCCCN3CCCN(c4ccc(O)c5[nH]c(=O)ccc45)CC3)cc2N1`: the PB result is “Not Active”.

For the next series, the target named is T3, Voltage-gated inwardly rectifying potassium channel KCNH2 (Homo sapiens, UniProt Q12809). Kind of series: Inhibition of human ERG expressed in CHO cells assessed as reduction in tail current at 1 uM and -40 holding potential by automated patch-clamp assay. In kind it is cell-based.
T3 sequence (Q12809 whole entry): as the sequence (Q12809 whole entry) above
Details: not given
For `O=C1CCc2ccc(OCCCCN3CCCN(c4ccc(O)c5[nH]c(=O)ccc45)CC3)cc2N1`, the “inhibition (INH)” value is recorded as “Not Active”.

A further series addresses T4, hERG (KCNH2) (Homo sapiens, UniProt Q12809). In words: Inhibition of human ERG expressed in CHO cells assessed as tail current remaining at 10 uM and -40 holding potential by automated patch-clamp assay. The note with it: CHO cells expressing human ERG, read-out: Activity. In kind it is cell-based.
For `O=C1CCc2ccc(OCCCCN3CCCN(c4ccc(O)c5[nH]c(=O)ccc45)CC3)cc2N1`, the activity at 10 µM stood at 71.7%.

A further series addresses T4, hERG (KCNH2). In words: Inhibition of human ERG expressed in CHO cells assessed as tail current remaining at 50 uM and -40 holding potential by automated patch-clamp assay. In kind it is cell-based. Conditions: CHO cells expressing human ERG, read-out: Activity.
Take `O=C1CCc2ccc(OCCCCN3CCCN(c4ccc(O)c5[nH]c(=O)ccc45)CC3)cc2N1`: the activity at 50 µM was found to be 21.5%.

Another series concerns the target T3, Voltage-gated inwardly rectifying potassium channel KCNH2. In words: Inhibition of human ERG expressed in CHO cells assessed as reduction in tail current at -40 holding potential by automated patch-clamp assay. Type of series: cell-based.
Details: not given
In the case of `O=C1CCc2ccc(OCCCCN3CCCN(c4ccc(O)c5[nH]c(=O)ccc45)CC3)cc2N1`, the IC50 is 19700 nM.

Staying with this series, now noted: human.
As to `O=C1CCc2ccc(OCCCCN3CCCN(c4ccc(O)c5[nH]c(=O)ccc45)CC3)cc2N1`, the “inhibition (INH)” value was “Dose-dependent effect”.

In the next series the test system is HEK293. In words: Cytotoxicity against HEK293 cells. Conditions: human. Type of series: cell-based.
Take `CCCCn1cc(CCCOc2ccc(C(=O)NCCCCN3CCCN(c4ccc(O)c5[nH]c(=O)ccc45)CC3)cc2OC)nn1`: the Activity result is “Non-Toxic”.
`O=C1CCc2ccc(OCCCCN3CCN(c4ccc(O)c5ncccc45)CC3)cc2N1`: the Activity result is “Non-Toxic”.
The same measure, in the same setting: the entry for `O=c1ccc2c(N3CCN(CCCCOc4ccn5nccc5c4)CC3)ccc(O)c2o1` is “Non-Toxic”.
With `O=C1CCc2ccc(OCCCCN3CCCN(c4ccc(O)c5[nH]c(=O)ccc45)CC3)cc2N1`, the Activity entry was “Non-Toxic”.

The target in the next series is T1, D(2) dopamine receptor.
Assay: not given
Conditions: HEK-293T, at 1e-07 to 100 µM.
On to `O=C1CCc2ccc(OCCCCN3CCCN(c4ccc(O)c5[nH]c(=O)ccc45)CC3)cc2N1`, for which the maximal response (Emax) amounted to 55%.

The target in another series is D(1A) dopamine receptor (Homo sapiens, UniProt P21728). In words: biochemical.
Sequence of D(1A) dopamine receptor (P21728 whole entry): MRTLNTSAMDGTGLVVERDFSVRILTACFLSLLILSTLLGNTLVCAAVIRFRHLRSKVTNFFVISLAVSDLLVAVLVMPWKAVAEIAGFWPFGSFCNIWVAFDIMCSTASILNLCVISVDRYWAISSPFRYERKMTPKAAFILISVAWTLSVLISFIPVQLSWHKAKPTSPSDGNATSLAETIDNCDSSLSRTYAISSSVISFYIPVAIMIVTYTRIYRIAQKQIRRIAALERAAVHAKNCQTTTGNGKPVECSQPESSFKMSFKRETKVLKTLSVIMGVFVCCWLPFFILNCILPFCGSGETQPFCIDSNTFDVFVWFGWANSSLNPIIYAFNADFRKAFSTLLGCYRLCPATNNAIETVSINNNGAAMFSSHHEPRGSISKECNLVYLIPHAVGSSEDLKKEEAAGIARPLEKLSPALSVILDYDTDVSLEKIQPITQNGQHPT
Details: not given
Consider `CCCCn1cc(CCCOc2ccc(C(=O)NCCCCN3CCCN(c4ccc(O)c5[nH]c(=O)ccc45)CC3)cc2OC)nn1`, for which the affinity, expressed as Ki, was 4000 nM.
Regarding `O=C1CCc2ccc(OCCCCN3CCN(c4ccc(O)c5ncccc45)CC3)cc2N1`, the affinity corresponds to a Ki of 1500 nM.
`O=c1ccc2c(N3CCN(CCCCOc4ccn5nccc5c4)CC3)ccc(O)c2o1`: the Ki was above 20000 nM.
The same measure, in the same setting: the figure for `O=C1CCc2ccc(OCCCCN3CCCN(c4ccc(O)c5[nH]c(=O)ccc45)CC3)cc2N1` is 11000 nM.

The next series concerns the target D(1B) dopamine receptor (Homo sapiens, UniProt P21918). Kind of series: biochemical.
Details: not given
For the compound `CCCCn1cc(CCCOc2ccc(C(=O)NCCCCN3CCCN(c4ccc(O)c5[nH]c(=O)ccc45)CC3)cc2OC)nn1`, the inhibitory constant (Ki) is above 20000 nM.
In the case of `O=C1CCc2ccc(OCCCCN3CCN(c4ccc(O)c5ncccc45)CC3)cc2N1`, the affinity, expressed as Ki, was 3400 nM.
Same read-out and setting: the result for `O=c1ccc2c(N3CCN(CCCCOc4ccn5nccc5c4)CC3)ccc(O)c2o1` reads above 20000 nM; that for `O=C1CCc2ccc(OCCCCN3CCCN(c4ccc(O)c5[nH]c(=O)ccc45)CC3)cc2N1`, above 20000 nM.

A further series concerns the target 5-hydroxytryptamine receptor 2A (Homo sapiens, UniProt P28223). In words: biochemical.
Details: not given
On to `CCCCn1cc(CCCOc2ccc(C(=O)NCCCCN3CCCN(c4ccc(O)c5[nH]c(=O)ccc45)CC3)cc2OC)nn1`, for which the Ki amounted to 1500 nM.
Turning to `O=C1CCc2ccc(OCCCCN3CCN(c4ccc(O)c5ncccc45)CC3)cc2N1`, the inhibitory constant (Ki) is 39 nM.
As to `O=c1ccc2c(N3CCN(CCCCOc4ccn5nccc5c4)CC3)ccc(O)c2o1`, the inhibition constant Ki was determined as 2800 nM.
Consider `O=C1CCc2ccc(OCCCCN3CCCN(c4ccc(O)c5[nH]c(=O)ccc45)CC3)cc2N1`, for which the Ki turned out to be 3400 nM.
